{
  "source": "the kinase profiling compilation of Christmann-Franck et al. (2016)",
  "test_in_all_cases": "KINOMEscan competition binding",
  "conditions_in_all_cases": "compound 1.0 µM",
  "key": {"[1]": {"test_system": "FLT3 (human), P36888 [ITD]"}, "CAMK1G (human)": {"target": "CAMK1G (human) (UniProt Q96NX5)"}, "[2]": {"test_system": "PIK3CA (human), P42336 [E542K]"}, "MET (human)": {"target": "MET (human) (UniProt P08581)"}, "FLT1 (human)": {"target": "FLT1 (human) (UniProt P17948)"}, "[3]": {"test_system": "ABL1 (human), P00519 [M351T]"}, "MAP2K4 (human)": {"target": "MAP2K4 (human) (UniProt P45985)"}, "EGFR (human)": {"target": "EGFR (human) (UniProt P00533)", "sequence (P00533 whole entry, looked up)": "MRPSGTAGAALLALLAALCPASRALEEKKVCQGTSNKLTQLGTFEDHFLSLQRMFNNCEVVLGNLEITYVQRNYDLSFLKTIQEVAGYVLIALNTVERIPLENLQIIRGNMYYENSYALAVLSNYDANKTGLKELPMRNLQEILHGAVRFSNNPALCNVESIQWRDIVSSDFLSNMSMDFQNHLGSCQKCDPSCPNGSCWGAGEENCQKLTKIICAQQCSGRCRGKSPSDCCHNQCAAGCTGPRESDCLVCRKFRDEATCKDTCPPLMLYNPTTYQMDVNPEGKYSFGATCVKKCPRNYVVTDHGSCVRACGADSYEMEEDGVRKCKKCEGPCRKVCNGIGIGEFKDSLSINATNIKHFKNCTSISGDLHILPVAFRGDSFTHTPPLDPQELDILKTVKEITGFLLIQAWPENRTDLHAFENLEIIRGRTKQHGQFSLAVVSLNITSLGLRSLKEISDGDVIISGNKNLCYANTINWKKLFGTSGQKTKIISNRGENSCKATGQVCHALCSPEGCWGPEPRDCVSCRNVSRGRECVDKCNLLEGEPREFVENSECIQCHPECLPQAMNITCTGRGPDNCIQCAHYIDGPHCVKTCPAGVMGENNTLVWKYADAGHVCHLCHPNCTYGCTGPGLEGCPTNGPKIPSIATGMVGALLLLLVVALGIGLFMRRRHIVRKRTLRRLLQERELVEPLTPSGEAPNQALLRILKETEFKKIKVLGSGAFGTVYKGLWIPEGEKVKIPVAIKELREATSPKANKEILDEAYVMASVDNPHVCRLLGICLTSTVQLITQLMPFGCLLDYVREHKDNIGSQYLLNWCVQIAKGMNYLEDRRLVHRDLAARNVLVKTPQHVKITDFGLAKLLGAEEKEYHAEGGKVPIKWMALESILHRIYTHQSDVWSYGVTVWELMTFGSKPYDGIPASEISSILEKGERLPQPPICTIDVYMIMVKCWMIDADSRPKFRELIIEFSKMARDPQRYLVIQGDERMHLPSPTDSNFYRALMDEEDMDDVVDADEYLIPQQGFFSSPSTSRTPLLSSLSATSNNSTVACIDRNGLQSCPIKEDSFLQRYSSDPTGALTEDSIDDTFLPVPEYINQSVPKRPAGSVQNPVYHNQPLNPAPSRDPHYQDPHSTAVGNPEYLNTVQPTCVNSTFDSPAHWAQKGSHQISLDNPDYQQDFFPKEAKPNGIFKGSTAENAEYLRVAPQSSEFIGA"}, "TESK1 (human)": {"target": "TESK1 (human) (UniProt Q15569)", "sequence (Q15569 whole entry, looked up)": "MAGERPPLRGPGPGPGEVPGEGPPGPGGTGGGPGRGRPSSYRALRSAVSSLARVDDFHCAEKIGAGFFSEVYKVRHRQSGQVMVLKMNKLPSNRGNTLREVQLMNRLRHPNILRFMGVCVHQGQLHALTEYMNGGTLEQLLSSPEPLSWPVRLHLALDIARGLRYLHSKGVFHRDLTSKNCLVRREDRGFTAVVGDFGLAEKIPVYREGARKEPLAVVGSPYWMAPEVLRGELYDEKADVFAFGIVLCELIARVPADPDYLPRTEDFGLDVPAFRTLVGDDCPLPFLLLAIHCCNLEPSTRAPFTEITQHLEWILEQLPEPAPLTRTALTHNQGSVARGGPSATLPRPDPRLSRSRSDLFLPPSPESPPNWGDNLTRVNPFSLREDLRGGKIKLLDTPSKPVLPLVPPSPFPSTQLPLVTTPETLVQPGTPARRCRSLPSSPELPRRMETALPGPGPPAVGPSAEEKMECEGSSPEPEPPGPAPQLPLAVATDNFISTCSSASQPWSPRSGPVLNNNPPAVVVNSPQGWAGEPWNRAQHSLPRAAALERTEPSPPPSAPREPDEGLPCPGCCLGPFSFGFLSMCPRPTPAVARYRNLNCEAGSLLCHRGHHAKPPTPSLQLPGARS"}, "CDK18 (human)": {"target": "CDK18 (human) (UniProt Q07002)"}, "WEE2 (human)": {"target": "WEE2 (human) (UniProt P0C1S8)"}, "DAPK3 (human)": {"target": "DAPK3 (human) (UniProt O43293)"}, "STK11 (human)": {"target": "STK11 (human) (UniProt Q15831)"}, "STK39 (human)": {"target": "STK39 (human) (UniProt Q9UEW8)"}, "HIPK3 (human)": {"target": "HIPK3 (human) (UniProt Q9H422)"}, "GRK1 (human)": {"target": "GRK1 (human) (UniProt Q15835)"}, "MAP2K2 (human)": {"target": "MAP2K2 (human) (UniProt P36507)", "sequence (P36507 whole entry, looked up)": "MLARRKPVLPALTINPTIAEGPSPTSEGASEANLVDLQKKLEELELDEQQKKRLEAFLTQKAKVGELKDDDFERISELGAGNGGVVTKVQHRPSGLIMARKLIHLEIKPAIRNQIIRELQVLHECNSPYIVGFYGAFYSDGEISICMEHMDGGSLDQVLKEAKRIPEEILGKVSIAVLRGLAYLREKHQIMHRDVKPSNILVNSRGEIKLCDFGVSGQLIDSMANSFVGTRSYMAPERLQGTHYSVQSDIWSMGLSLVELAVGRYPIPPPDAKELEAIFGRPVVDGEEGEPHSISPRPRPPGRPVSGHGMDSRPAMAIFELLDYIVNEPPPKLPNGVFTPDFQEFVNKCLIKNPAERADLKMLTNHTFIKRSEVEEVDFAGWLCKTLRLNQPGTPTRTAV"}, "CDK15 (human)": {"target": "CDK15 (human) (UniProt Q96Q40)", "sequence (Q96Q40 whole entry, looked up)": "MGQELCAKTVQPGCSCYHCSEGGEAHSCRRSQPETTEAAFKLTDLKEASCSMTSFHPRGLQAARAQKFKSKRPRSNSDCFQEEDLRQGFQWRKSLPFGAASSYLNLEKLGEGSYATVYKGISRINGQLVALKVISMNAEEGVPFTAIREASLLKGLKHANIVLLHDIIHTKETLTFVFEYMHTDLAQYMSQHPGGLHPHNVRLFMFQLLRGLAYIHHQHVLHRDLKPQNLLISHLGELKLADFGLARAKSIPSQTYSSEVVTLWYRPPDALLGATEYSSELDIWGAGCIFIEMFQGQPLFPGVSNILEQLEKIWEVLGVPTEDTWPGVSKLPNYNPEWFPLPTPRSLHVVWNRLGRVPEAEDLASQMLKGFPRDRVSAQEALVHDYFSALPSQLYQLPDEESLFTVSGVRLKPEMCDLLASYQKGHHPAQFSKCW"}, "RPS6KA3 KD1 (human)": {"target": "RPS6KA3 KD1 (human) (UniProt P51812)"}, "[4]": {"test_system": "PIK3CA (human), P42336 [H1047L]"}, "[5]": {"test_system": "KIT (human), P10721 [A829P]"}, "MKNK1 (human)": {"target": "MKNK1 (human) (UniProt Q9BUB5)"}, "PIK3C2B (human)": {"target": "PIK3C2B (human) (UniProt O00750)"}, "AURKA (human)": {"target": "AURKA (human) (UniProt O14965)"}, "CLK3 (human)": {"target": "CLK3 (human) (UniProt P49761)"}, "EPHA4 (human)": {"target": "EPHA4 (human) (UniProt P54764)", "sequence (P54764 whole entry, looked up)": "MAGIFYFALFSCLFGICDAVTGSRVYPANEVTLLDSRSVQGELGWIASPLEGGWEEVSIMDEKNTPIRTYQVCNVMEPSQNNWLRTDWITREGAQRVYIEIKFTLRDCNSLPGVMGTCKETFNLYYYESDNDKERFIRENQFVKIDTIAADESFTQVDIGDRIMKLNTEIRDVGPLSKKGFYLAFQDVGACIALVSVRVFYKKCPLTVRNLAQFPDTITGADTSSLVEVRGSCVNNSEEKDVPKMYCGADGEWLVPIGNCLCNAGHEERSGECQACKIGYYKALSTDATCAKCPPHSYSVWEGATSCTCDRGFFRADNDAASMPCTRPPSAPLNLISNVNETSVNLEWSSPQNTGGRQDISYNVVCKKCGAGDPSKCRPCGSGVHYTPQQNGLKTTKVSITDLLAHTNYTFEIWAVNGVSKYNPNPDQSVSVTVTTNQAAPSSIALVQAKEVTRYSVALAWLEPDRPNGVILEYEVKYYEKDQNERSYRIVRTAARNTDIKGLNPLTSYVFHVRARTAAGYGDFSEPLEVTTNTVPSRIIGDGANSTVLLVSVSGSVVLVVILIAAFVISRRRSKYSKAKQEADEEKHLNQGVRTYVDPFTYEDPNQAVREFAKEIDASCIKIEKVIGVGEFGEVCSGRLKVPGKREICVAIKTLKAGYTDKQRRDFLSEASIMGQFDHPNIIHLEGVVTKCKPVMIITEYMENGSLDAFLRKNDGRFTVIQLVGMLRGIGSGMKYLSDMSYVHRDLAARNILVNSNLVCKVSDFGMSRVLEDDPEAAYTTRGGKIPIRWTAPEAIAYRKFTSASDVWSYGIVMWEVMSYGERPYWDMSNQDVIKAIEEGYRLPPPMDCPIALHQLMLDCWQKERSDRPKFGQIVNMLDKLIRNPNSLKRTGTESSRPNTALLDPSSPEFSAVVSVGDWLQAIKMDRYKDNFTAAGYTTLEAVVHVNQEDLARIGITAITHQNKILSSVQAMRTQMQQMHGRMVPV"}, "CSNK2A1 (human)": {"target": "CSNK2A1 (human) (UniProt P68400)", "sequence (P68400 whole entry, looked up)": "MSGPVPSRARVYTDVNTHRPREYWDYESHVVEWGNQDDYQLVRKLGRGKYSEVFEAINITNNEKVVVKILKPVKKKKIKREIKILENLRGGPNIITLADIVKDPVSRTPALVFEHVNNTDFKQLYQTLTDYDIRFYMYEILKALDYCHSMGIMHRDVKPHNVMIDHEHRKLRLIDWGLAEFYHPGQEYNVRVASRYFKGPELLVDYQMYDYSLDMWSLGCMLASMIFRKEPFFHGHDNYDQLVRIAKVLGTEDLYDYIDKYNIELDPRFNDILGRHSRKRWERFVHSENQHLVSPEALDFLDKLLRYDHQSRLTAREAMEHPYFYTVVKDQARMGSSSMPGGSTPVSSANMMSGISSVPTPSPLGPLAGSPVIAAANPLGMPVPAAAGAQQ"}, "[6]": {"test_system": "FLT3 (human), P36888 [R834Q]"}, "[7]": {"test_system": "ABL1 (human), P00519 [E255K]"}, "RPS6KA4 KD1 (human)": {"target": "RPS6KA4 KD1 (human) (UniProt O75676)"}, "CDC42BPA (human)": {"target": "CDC42BPA (human) (UniProt Q5VT25)"}, "MAP2K1 (human)": {"target": "MAP2K1 (human) (UniProt Q02750)"}, "AURKC (human)": {"target": "AURKC (human) (UniProt Q9UQB9)"}, "PIM2 (human)": {"target": "PIM2 (human) (UniProt Q9P1W9)", "sequence (Q9P1W9 whole entry, looked up)": "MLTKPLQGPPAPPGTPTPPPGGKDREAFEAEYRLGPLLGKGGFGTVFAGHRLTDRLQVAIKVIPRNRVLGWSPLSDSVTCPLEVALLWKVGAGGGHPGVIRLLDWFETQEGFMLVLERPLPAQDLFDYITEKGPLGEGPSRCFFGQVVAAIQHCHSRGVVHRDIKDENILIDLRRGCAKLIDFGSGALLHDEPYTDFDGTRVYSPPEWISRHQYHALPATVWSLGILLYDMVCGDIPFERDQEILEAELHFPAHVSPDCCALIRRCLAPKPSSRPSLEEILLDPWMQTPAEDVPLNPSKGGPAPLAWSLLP"}, "[8]": {"test_system": "PIK3CA (human), P42336 [Q546K]"}, "TLK2 (human)": {"target": "TLK2 (human) (UniProt Q86UE8)"}, "STK25 (human)": {"target": "STK25 (human) (UniProt O00506)", "sequence (O00506 whole entry, looked up)": "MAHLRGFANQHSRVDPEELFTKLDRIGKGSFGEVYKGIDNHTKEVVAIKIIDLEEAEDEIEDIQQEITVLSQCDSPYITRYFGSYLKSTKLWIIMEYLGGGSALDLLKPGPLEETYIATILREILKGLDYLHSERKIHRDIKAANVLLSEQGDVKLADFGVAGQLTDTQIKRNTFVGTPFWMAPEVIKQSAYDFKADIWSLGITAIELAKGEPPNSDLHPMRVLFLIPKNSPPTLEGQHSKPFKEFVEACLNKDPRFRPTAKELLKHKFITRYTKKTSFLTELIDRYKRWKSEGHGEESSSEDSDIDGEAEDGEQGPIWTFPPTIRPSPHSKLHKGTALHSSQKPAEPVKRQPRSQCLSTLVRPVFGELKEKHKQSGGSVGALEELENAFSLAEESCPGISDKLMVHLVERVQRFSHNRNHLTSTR"}, "CDKL5 (human)": {"target": "CDKL5 (human) (UniProt O76039)"}, "MAPK15 (human)": {"target": "MAPK15 (human) (UniProt Q8TD08)"}},
  "data": [
    {"smiles": "CNc1nc(Nc2ccc(C(=O)N3CCOCC3)cc2OC)ncc1Cl", "values": [
      {"measurement": "kinase still bound, per cent of control", "setting": "[1]", "result": 87, "unit": "%"},
      {"measurement": "kinase still bound, per cent of control", "setting": "CAMK1G (human)", "result": 96, "unit": "%"},
      {"measurement": "kinase still bound, per cent of control", "setting": "[2]", "result": 100, "unit": "%"},
      {"measurement": "kinase still bound, per cent of control", "setting": "MET (human)", "result": 100, "unit": "%"},
      {"measurement": "kinase still bound, per cent of control", "setting": "FLT1 (human)", "result": 100, "unit": "%"},
      {"measurement": "kinase still bound, per cent of control", "setting": "[3]", "result": 97, "unit": "%"},
      {"measurement": "kinase still bound, per cent of control", "setting": "MAP2K4 (human)", "result": 78, "unit": "%"},
      {"measurement": "kinase still bound, per cent of control", "setting": "EGFR (human)", "result": 100, "unit": "%"},
      {"measurement": "kinase still bound, per cent of control", "setting": "TESK1 (human)", "result": 100, "unit": "%"},
      {"measurement": "residual activity", "setting": "CDK18 (human)", "result": 98, "unit": "%"},
      {"measurement": "kinase still bound, per cent of control", "setting": "WEE2 (human)", "result": 95, "unit": "%"},
      {"measurement": "kinase still bound, per cent of control", "setting": "DAPK3 (human)", "result": 63, "unit": "%"},
      {"measurement": "kinase still bound, per cent of control", "setting": "STK11 (human)", "result": 90, "unit": "%"},
      {"measurement": "residual activity", "setting": "STK39 (human)", "result": 100, "unit": "%"},
      {"measurement": "kinase still bound, per cent of control", "setting": "HIPK3 (human)", "result": 47, "unit": "%"},
      {"measurement": "kinase still bound, per cent of control", "setting": "GRK1 (human)", "result": 100, "unit": "%"},
      {"measurement": "kinase still bound, per cent of control", "setting": "MAP2K2 (human)", "result": 84, "unit": "%"},
      {"measurement": "residual activity", "setting": "CDK15 (human)", "result": 84, "unit": "%"},
      {"measurement": "kinase still bound, per cent of control", "setting": "RPS6KA3 KD1 (human)", "result": 100, "unit": "%"},
      {"measurement": "kinase still bound, per cent of control", "setting": "[4]", "result": 100, "unit": "%"},
      {"measurement": "kinase still bound, per cent of control", "setting": "[5]", "result": 93, "unit": "%"},
      {"measurement": "kinase still bound, per cent of control", "setting": "MKNK1 (human)", "result": 88, "unit": "%"},
      {"measurement": "kinase still bound, per cent of control", "setting": "PIK3C2B (human)", "result": 96, "unit": "%"},
      {"measurement": "kinase still bound, per cent of control", "setting": "AURKA (human)", "result": 96, "unit": "%"},
      {"measurement": "kinase still bound, per cent of control", "setting": "CLK3 (human)", "result": 100, "unit": "%"},
      {"measurement": "kinase still bound, per cent of control", "setting": "EPHA4 (human)", "result": 100, "unit": "%"},
      {"measurement": "kinase still bound, per cent of control", "setting": "CSNK2A1 (human)", "result": 76, "unit": "%"},
      {"measurement": "kinase still bound, per cent of control", "setting": "[6]", "result": 100, "unit": "%"},
      {"measurement": "kinase still bound, per cent of control", "setting": "[7]", "result": 52, "unit": "%"},
      {"measurement": "kinase still bound, per cent of control", "setting": "RPS6KA4 KD1 (human)", "result": 89, "unit": "%"},
      {"measurement": "kinase still bound, per cent of control", "setting": "CDC42BPA (human)", "result": 97, "unit": "%"},
      {"measurement": "kinase still bound, per cent of control", "setting": "MAP2K1 (human)", "result": 89, "unit": "%"},
      {"measurement": "kinase still bound, per cent of control", "setting": "AURKC (human)", "result": 88, "unit": "%"},
      {"measurement": "kinase still bound, per cent of control", "setting": "PIM2 (human)", "result": 100, "unit": "%"},
      {"measurement": "kinase still bound, per cent of control", "setting": "[8]", "result": 100, "unit": "%"},
      {"measurement": "kinase still bound, per cent of control", "setting": "TLK2 (human)", "result": 100, "unit": "%"},
      {"measurement": "kinase still bound, per cent of control", "setting": "STK25 (human)", "result": 100, "unit": "%"},
      {"measurement": "residual activity", "setting": "CDKL5 (human)", "result": 94, "unit": "%"},
      {"measurement": "kinase still bound, per cent of control", "setting": "MAPK15 (human)", "result": 100, "unit": "%"}
    ]}
  ]
}
